Measured values as given in patent US8563009B2, “Use of monomycolyl glycerol (MMG) as an adjuvant” (priority 2007, dated 2013).

How the values were obtained:
[1] = test system: IFN-γ release by PBMC upon restimulation with antigen; assay: IFN-γ release by lymphocytes of mice immunised with Ag85B-ESAT-6 in adjuvant; assay type: in vivo, C57BL/6 mice; conditions: for immune response (IFN-γ release by PBMC) in the blood one week after the last vaccination: Ag85B-ESAT-6 in DDA, 10 μg MMG or analogue
[2] = test system: human peripheral blood monocyte-derived immature DC (iDC); assay type: cell-based; conditions: 24 h, 10 μg/ml lipid, ELISA, Tukey test
[3] = test system: human peripheral blood monocyte-derived immature DC (iDC); assay: Activation of human immature dendritic cells, surface markers by flow cytometry; assay type: cell-based; conditions: 24 h, 10 μg/ml lipid; for mean fold increase in CD86 levels above levels associated with untreated iDC: six individual donors
[4] = 10 μg lipid in 250 μg DDA liposomes with 2 μg Ag85B-ESAT-6, s.c.

Compound | IFN-γ levels upon restimulation of PBMC isolated from the draining lymph node [1, 4] [ng/mL] | immune response (IFN-γ release by PBMC) in the blood one week after the last vaccination [1] | IL-6 release by DC [2] | DC activation, upregulation of CD86, CD40 and HLA-DR (rank among purified apolar lipids) [3] | mean fold increase in CD86 levels above levels associated with untreated iDC [3] [fold] | IFN-γ production, draining lymph node (in words) [1, 4]
monomycolyl glycerol [MMG] | 10 | comparable levels of responses | significantly greater levels | most potent inducer of DC activation | 1.91±0.29 | –
CCCCCCCCCCCCCCCCCC[N+](C)(C)CCCCCCCCCCCCCCCCCC.[Br-] [DDA, dimethyldioctadecylammonium] | – | lower effect | – | – | – | –
triacyl glycerols [TAGs] | – | – | – | induced less activation | 1.32±0.14 | very little IFN-γ release
CCCCCCCCCCCCCCCCCC(O)C(CCCCCCCCCCCCCCCC)C(=O)OCC(O)CO (centres unmarked) [synthetic MMG analogue with 36 carbons, 3-hydroxy-2-hexadecylicosanoic acid-2,3-dihydroxypropyl ester] | – | comparable levels of responses | – | – | – | –
phenolic glycolipid [PGL] | – | – | – | induced less activation | 1.52±0.26 | very little IFN-γ release
phthiocerol dimycocerosate A [PDIM A] | – | – | – | second most active lipid | 1.82±0.43 | albeit to a lower level
CCCCCCCC(O)C(CCCCCC)C(=O)OCC(O)CO (centres unmarked) [synthetic MMG analogue with 16 carbons, 3-hydroxy-2-hexyl-decanoic acid-2,3-dihydroxypropyl ester] | – | comparable levels of responses | – | – | – | –
